Numbers after ± are expanded uncertainties. Values belong to the compound of their own block, whether it stands above or below them.
Settings: Liquid, Ebulliometric method (Recirculating still)

vapor or sublimation pressure (370.2 K): 101 ± 1 kPa
Structure (SMILES): CCCO [propan-1-ol]

vapor or sublimation pressure (372.9 K): 101 ± 1 kPa
Structure (SMILES): O [water]

vapor or sublimation pressure (374.8 K): 101 ± 1 kPa
Structure (SMILES): CCCOC(C)=O [propyl ethanoate]

— the NIST ThermoML archive (doi:10.1016/j.fluid.2017.05.012)
